Here are results for 14 molecules from US11345659B2, “Pipecolic esters for inhibition of the proteasome” (THE BOARD OF REGENTS OF THE UNIVERSY OF TEXAS SYSTEM, priority 2018, dated 2022).

What all share (format): biochemical
The target of experiment [1] is T1, 20 S human housekeeping proteasome (Homo sapiens, UniProt P25787+P25789).
T1 construct: purified from erythrocytes; purchased Enzo Life Sciences, Inc. (Farmingdale, N.Y.); host or cells: human erythrocytes
Kind of experiment: ChT-L peptidase activity of 20 S proteasome activated with Rpt5 peptide. The conditions noted are these: ChT-L, 20 S activated with Rpt5 peptide; for IC50: Suc-LLVY-AMC substrate, read-out: IC50. On the procedure:
(§1) Human housekeeping 20 S and 26 S and complexes purified from erythrocytes were purchased from Enzo Life Sciences, Inc. (Farmingdale, N.Y.). The 1 mg/ml stock 20 S proteasome was diluted to 0.2 mg/ml working solution in 50 mM Tris/HCl, pH 8 containing 20% glycerol (dilution buffer). For the 26 S proteasome stock, the dilution buffer was supplemented with 2 mM ATP, 1 mM MgCl2, and 1 mM DTT (dithiothreitol). The ChT-L peptidase activity was measured as arbitrary intensity units of fluorescence emitted by 7-amino-4-methylcoumarin (AMC) released from the canonical model peptide substrate succinyl-LeuLeuValTyr-methylcoumarin (SucLLVY-MCA; Bachem Bioscience Inc., Philadelphia, Pa.), used at concentration of 100 μM. Free AMC (Sigma-Aldrich, St. Louis, Mo.) was used as the standard. The Rpt5 C-terminal peptide was synthesized (standard solid-phase peptide chemistry) and purified to at least 98% purity by GenScript (Piscataway, N.J.). The Rpt5 peptide and the peptide substrate were dissolved in dimethylsulfoxide (DMSO) and such stock solutions were stored at −20° C. The total concentration of DMSO in final reaction mixtures never exceeded 3% (vol/vol).
The reaction was carried out in 96-well plates, in 100 μL of reaction mixture, for 1 hour at 37° C. In the case of 20 S proteasome, the reaction mixture consisted of 45 mM Tris/HCl, pH 8, 100 mM KCl with premixed 10 μM Rpt5 peptide and 100 μM Suc-LLVY-MCA, to which 200 ng (nearly […]) of proteasome and desired concentration of tested compounds in 1 μL of DMSO were added. To test the activity of 26 S proteasome under conditions challenging coordination of the three pairs of peptidase active centers, a mixture of three canonical substrates specific for the ChT-L (SucLLVY-MCA), trypsin-like (T-L; BocLRR-MCA) and caspase-like (Casp-L; Z-LLE-MCA) was used with each of the substrates at 33.3 μM (100 μM of the total substrate concentration). The reaction mixture in this case consisted of 50 mM Tris/HCl, pH 8, 20 mM NaCl, premixed with the substrates and 2 mM ATP, to which 200 ng (nearly 0.1 nmol) of the 26 S working solution and desired concentration of tested compounds in 0.5 μL of DMSO were added. The reaction rates were calculated from a linear segment of kinetic curves constructed from measurements in 1-minutes intervals (Fluoroskan Ascent plate reader; Thermo Fisher Scientific Inc., Waltham, Mass.). Reaction rates were calculated using a linear fit executed by Slope Analyzer and Enzyme Kinetics applications launched within Origin Pro 2017 (OriginLab). Specific activity of the control 20 S proteasome activated with the Rpt5 peptide was in the range of 1.4 to 2.3 nanomoles of AMC product released by 1 mg of 20 S per second (1.95±0.24; n=18). Specific activity of the control 26 S proteasome challenged with three substrates reached on average 0.28±0.06 nanomoles of AMC product released by 1 mg of the enzyme per second (n=6). For comparison, degradation of the canonical Suc-LLVY-MCA substrate by the control 26 S proteasome preceded with a rate in the range of 0.6-0.8 nanomoles of AMC released per mg of the enzyme per second. The data are presented as mean±SD or as a representative set from at least 3 independent experiments.
The compounds were evaluated using the 20 S human housekeeping proteasome. It was activated with the Rpt5 derived 10-residue peptide that contains the C-terminal HbYX (hydrophobic-Tyr-any AA) motif activating the proteasome in trans and to some extend mimic the activation by the 19 S regulatory particle (Osmulski and Gaczynska (2013) Molecular pharmacology 84: 104-113; Smith et al. (2006) J. Struct. Biol. 156: 72-83; Smith et al. (2007) Mol. Cell 27: 731-744). Proteolytic activity was monitored over time using a fluorogenic peptide substrate specific for the chymotrypsin-like active center (ChT-L, Suc-LLVY-AMC) in the presence of a concentration range of the inhibitors. […]

Another experiment concerns the target T2, 26 S proteasome (Homo sapiens, UniProt P25787+P25789).
T2 construct: purified from erythrocytes; purchased Enzo Life Sciences, Inc. (Farmingdale, N.Y.); host or cells: human erythrocytes
Kind of experiment: 26 S proteasome challenged with mixture of three substrates (surrogate proteinase assay). Particulars: mixture of ChT-L, T-L and Casp-L substrates, 33.3 μM each; read-out: IC50, 26 S proteasome with substrates for all three peptidases. The method, then: as §1
The reaction was carried out in 96-well plates, in 100 μL of reaction mixture, for 1 hour at 37° C. In the case of 20 S proteasome, the reaction mixture consisted of 45 mM Tris/HCl, pH 8, 100 mM KCl with premixed 10 μM Rpt5 peptide and 100 μM Suc-LLVY-MCA, to which 200 ng (nearly […]) of proteasome and desired concentration of tested compounds in 1 μL of DMSO were added. […] The reaction rates were calculated from a linear segment of kinetic curves constructed from measurements in 1-minutes intervals (Fluoroskan Ascent plate reader; Thermo Fisher Scientific Inc., Waltham, Mass.). Reaction rates were calculated using a linear fit executed by Slope Analyzer and Enzyme Kinetics applications launched within Origin Pro 2017 (OriginLab). […]

The target in experiment [2] is T3, latent core 20 S proteasome (Homo sapiens, UniProt P25787+P25789).
T3 construct: purified from erythrocytes; purchased Enzo Life Sciences, Inc. (Farmingdale, N.Y.); host or cells: human erythrocytes
The experiment in a line: Competition of compound 3 with tRpt6 peptide, ChT-L activity of latent core. Particulars: 2 μM tRpt6. From the text: According to the most recent model of the 26 S proteasome dynamic cycle, Rpt6 succeeds the Hb-Y—X containing anchor subunits Rpt5, Rpt3, and Rpt2 in docking into the α face pockets and promoting an intermediate conformation between latent and activated (open gate) proteasomes (Dong et al. ([…]) Nature 565(7737): 49-55). […] For comparison, no competition between tRpt5, expected to occupy the α5/α6 pocket, and compound 3 was detected.
Referring to FIG. 4, the C-terminal peptide derived from Rpt6 subunit compromises inhibition of the ChT-L activity of the latent core by the compound 3; however, only when added to the proteasome prior to the inhibitor. […] 1 μM compound 3 and 2 μM tRpt6 were tested. Mean±SD; n=3 to 6.

A word on the IC50: it is the concentration that gives 50% inhibition. With `COc1cc(CCCOC(=O)C2CCCCN2C(=O)OCc2ccccc2)cc(OC)c1OC` (racemic) [Compound 2, 1-benzyl 2-(3-(3,4,5-trimethoxyphenyl)propyl)piperidine-1,2-dicarboxylate], the IC50 in experiment [1] was determined as 11.5 µM.

Consider `COc1cc(COC(=O)[C@@H]2CCCCN2C(=O)OCc2ccccc2)cc(OC)c1OC` (stereo in doubt) [Compound 8, 1-benzyl 2-(3,4,5-trimethoxybenzyl) piperidine-1,2-dicarboxylate], for which, in experiment [1], the “ChT-L inhibitory activity in words” value is reported as “significantly reduced its activity” and the IC50 amounted to 19.8 µM.

For `COc1cc(CCCOC(=O)[C@@H]2CCCCN2C(=O)OCC(C)C)cc(OC)c1OC` [Compound 4, 1-isobutyl 2-(3-(3,4,5-trimethoxyphenyl)propyl) (S)-piperidine-1,2-dicarboxylate], in experiment [1], the IC50 came out at 15.2 µM.

Turning to `COC(=O)N1CCCC[C@H]1C(=O)OCCCc1cc(OC)c(OC)c(OC)c1` [Compound 5, 1-methyl 2-(3-(3,4,5-trimethoxyphenyl)propyl) (S)-piperidine-1,2-dicarboxylate], in experiment [1], the “ChT-L inhibitory activity in words” value was “completely abrogated activity” and the IC50 was greater than 50 µM.

Regarding `COc1cc(CCCOC(=O)[C@@H]2CCCN(C(=O)OCc3ccccc3)C2)cc(OC)c1OC` [Compound 6, 1-benzyl 3-(3-(3,4,5-trimethoxyphenyl)propyl) (R)-piperidine-1,3-dicarboxylate], the IC50 in experiment [1] was determined as 14.7 µM.

With `COc1cc(CCOC(=O)[C@@H]2CCCCN2C(=O)OCc2ccccc2)cc(OC)c1OC` [Compound 7, 1-benzyl 2-(3,4,5-trimethoxyphenethyl) (S)-piperidine-1,2-dicarboxylate], in experiment [1], the “ChT-L inhibitory activity in words” value is “significantly reduced its activity” and the IC50 worked out at 20.1 µM.

With `O=C(OCCCc1ccccc1)[C@@H]1CCCCN1C(=O)OCc1ccccc1` [Compound 9, 1-benzyl 2-(3-phenylpropyl) (S)-piperidine-1,2-dicarboxylate], the IC50 in experiment [1] is 2.6 µM; at 26 S proteasome it was greater than 60 µM.

Consider `CCCOC(=O)[C@@H]1CCCCN1C(=O)OCc1ccccc1` [Compound 10, 1-benzyl 2-propyl (S)-piperidine-1,2-dicarboxylate], for which, in experiment [1], the “ChT-L inhibitory activity in words” value was “inactive” and the IC50 was greater than 50 µM.

With `O=C(O)[C@@H]1CCCCN1C(=O)OCc1ccccc1` [Compound 11, 1-((benzyloxy)carbonyl) (S)-piperidine-2-carboxylic Acid], in experiment [1], the “ChT-L inhibitory activity in words” value was “inactive” and the IC50 was greater than 50 µM.

With `COc1cc(CCCOC(=O)[C@@H]2CCCN2C(=O)OCc2ccccc2)cc(OC)c1OC` [Compound 12, 1-benzyl 2-(3-(3,4,5-trimethoxyphenyl)propyl) (S)-pyrrolidine-1,2-dicarboxylate], in experiment [1], the “ChT-L inhibitory activity in words” value is recorded as “only had modest activity” and the IC50 was 23.8 µM.

On to `O=C(OCCCc1ccccc1)[C@@H]1CCCN1C(=O)OCc1ccccc1` [Compound 13, 1-benzyl 2-(3-phenylpropyl) (S)-pyrrolidine-1,2-dicarboxylate], for which, in experiment [1], the IC50 was found to be 6.6 µM.

On to `O=C(OCCc1ccccc1)[C@@H]1CCCN1C(=O)OCc1ccccc1` [Compound 14, 1-benzyl 2-phenethyl (S)-pyrrolidine-1,2-dicarboxylate], for which, in experiment [1], the “ChT-L inhibitory activity in words” value was “decreased activity” and the IC50 turned out to be 19.2 µM.

As for `O=C(OCc1ccccc1)[C@@H]1CCCN1C(=O)OCc1ccccc1` [Compound 15, Dibenzyl (S)-pyrrolidine-1,2-dicarboxylate], in experiment [1], the “ChT-L inhibitory activity in words” value was “decreased activity” and the IC50 was 33.5 µM.

Turning to “tRpt6: 10-residue peptide derived from C-terminal fragment of Rpt6 (KNMSIKKLWK) [reference compound]”, the “effect of peptide alone on proteasome activity” value in experiment [2] is reported as “did not affect the proteasome activity”.
